# Laboratory results reported in patent US20240360157A1, “TYK2 INHIBITORS” (BIOGEN MA INC., priority 2021, published 2024).
# Counter-ions that a name gives are not always drawn.
# Legend:
# Assay type in all cases: biochemical
# [1] = biological target: human JAK1 catalytic kinase (JH1) domain (Homo sapiens (Human), UniProt P23458); assay: ADP-Glo Kinase Assay, recombinant JAK1 catalytic kinase (JH1) domain; conditions: recombinant JH1 domain 4 nM, 35 μM ATP, JAK3-342 peptide, mean, read-out: JAK1 biochem IC50 (nM) Mean
# Method: (§1) Compounds of the disclosure were assessed for their ability to inhibit TYK2, JAK1, JAK2, and JAK3 activity. The inhibitory properties of the compounds of the disclosure described herein can be evidenced by testing in any one of the following protocols.
# (§2) The kinase activity of recombinantly generated catalytic kinase (also known as JH1) domain of human JAK1, JAK2, JAK3 and TYK2 were evaluated in a plate-based assay using the ADP-Glo™ Kinase Assay platform. Specifically, 4 nM of recombinant JAK1 kinase domain is used to phosphorylate 50 μM of a JAK3-342 (sequence ALVDGYFRLTT) peptide in the presence of 35 μM ATP. Catalytic activities of recombinant JAK2, JAK3 and TYK2 kinase domain (0.2, 0.3 and 2 nM, respectively) are evaluated by the phosphorylation status of the JAK3-974 (50 μM; sequence LPLDKDYYVVR) peptide with the addition of ATP (15, 4 and 10 μM, respectively). The reactions proceed for 100 minutes and the catalytic activity is quantified by first depleting the unused ATP, converting the hydrolyzed ADP into ATP to generate luminescence in a luciferase reaction; which is the basis of the ADP-Glo platform. Compounds are tested at either 10 μM or 1 μM top concentration, 11 points of 3-fold dilution. The data is normalized and the percent activity versus log concentration of compound is fitted with a 4-parameter logistic model to generate a curve and an IC50 value.
# [2] = biological target: human JAK2 catalytic kinase (JH1) domain (Homo sapiens (Human), UniProt O60674); assay: ADP-Glo Kinase Assay, recombinant JAK2 catalytic kinase (JH1) domain; conditions: recombinant JH1 domain 0.2 nM, 15 μM ATP, JAK3-974 peptide, mean, read-out: JAK2 biochem IC50 (nM) Mean
# Method: as §1, §2
# [3] = biological target: human JAK3 catalytic kinase (JH1) domain (Homo sapiens (Human), UniProt P52333); assay: ADP-Glo Kinase Assay, recombinant JAK3 catalytic kinase (JH1) domain; conditions: recombinant JH1 domain 0.3 nM, 4 μM ATP, JAK3-974 peptide, mean, read-out: JAK3 biochem IC50 (nM) Mean
# Method: as §1, §2
# [4] = biological target: human TYK2 catalytic kinase (JH1) domain (Homo sapiens (Human), UniProt P29597); assay: ADP-Glo Kinase Assay, recombinant TYK2 catalytic kinase (JH1) domain; conditions: recombinant JH1 domain 2 nM, 10 μM ATP, JAK3-974 peptide, mean, read-out: TYK2 biochem IC50 (nM) Mean
# Method: as §1, §2
# Sequence of human JAK3 catalytic kinase (JH1) domain (P52333 822-1111): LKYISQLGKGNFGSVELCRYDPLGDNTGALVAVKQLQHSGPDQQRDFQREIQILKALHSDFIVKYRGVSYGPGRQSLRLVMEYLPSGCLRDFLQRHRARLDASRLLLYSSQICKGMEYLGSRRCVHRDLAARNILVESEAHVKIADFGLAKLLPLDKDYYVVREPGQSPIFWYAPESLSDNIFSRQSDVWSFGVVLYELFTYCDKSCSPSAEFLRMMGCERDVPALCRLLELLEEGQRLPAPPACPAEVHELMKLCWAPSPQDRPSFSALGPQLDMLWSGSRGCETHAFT
# Sequence of human JAK1 catalytic kinase (JH1) domain (P23458 875-1153): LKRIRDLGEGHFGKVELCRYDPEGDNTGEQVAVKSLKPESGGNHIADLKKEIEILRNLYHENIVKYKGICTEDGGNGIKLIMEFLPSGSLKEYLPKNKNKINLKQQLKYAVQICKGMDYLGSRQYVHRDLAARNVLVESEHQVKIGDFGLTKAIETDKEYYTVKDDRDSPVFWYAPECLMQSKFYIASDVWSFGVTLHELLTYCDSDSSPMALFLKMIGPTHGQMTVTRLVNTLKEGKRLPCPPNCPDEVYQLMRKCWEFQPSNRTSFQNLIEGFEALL
# Sequence of human TYK2 catalytic kinase (JH1) domain (P29597 897-1176): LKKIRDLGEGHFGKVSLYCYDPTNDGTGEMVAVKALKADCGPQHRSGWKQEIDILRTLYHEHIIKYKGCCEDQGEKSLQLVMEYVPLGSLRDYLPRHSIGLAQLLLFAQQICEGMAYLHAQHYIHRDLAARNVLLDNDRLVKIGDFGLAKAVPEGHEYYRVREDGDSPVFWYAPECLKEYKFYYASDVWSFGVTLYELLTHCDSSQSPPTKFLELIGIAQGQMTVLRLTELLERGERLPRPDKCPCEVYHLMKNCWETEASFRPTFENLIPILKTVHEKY
# Sequence of human JAK2 catalytic kinase (JH1) domain (O60674 849-1124): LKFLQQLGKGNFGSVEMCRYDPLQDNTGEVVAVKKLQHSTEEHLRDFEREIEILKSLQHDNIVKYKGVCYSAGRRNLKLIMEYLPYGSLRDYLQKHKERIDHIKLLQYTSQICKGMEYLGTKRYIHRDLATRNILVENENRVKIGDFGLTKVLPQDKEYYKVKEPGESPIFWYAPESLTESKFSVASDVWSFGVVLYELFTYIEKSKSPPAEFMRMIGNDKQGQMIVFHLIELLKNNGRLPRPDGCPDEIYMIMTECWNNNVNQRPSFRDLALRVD
SMILES,IC50 [1] [nM],IC50 [2] [nM],IC50 [3] [nM],IC50 [4] [nM]
"Cn1cc(-c2cc3c(N4CC5CCC(C4)N5C(=O)[C@H]4C[C@H]4C#N)ncnn3c2)cn1 (single isomer, unassigned) [Example 85]",3310,10000,4450,751
"Cn1cc(-c2nc3c(N4CC5CCC(C4)N5C(=O)[C@@H]4C[C@H]4F)c(F)cnc3[nH]2)c(F)n1 [Example 213, (3-(6-fluoro-2-(3-fluoro-1-methyl-1H-pyrazol-4-yl)-3H-imidazo[4,5-b]pyridin-7-yl)-3,8-diazabicyclo[3.2.1]octan-8-yl)((1S,2R)-2-fluorocyclopropyl)methanone]",37,25,87,2.5
Cn1cc(-c2cc3c(N4CC5CCC(C4)N5C(=O)[C@@H]4C[C@H]4F)ncnn3c2)cc(F)c1=O [Example 167],2210,1740,10000,95
"O=C([C@H]1C[C@H]1F)N1C2CCC1CN(c1ncnn3cc(-c4cnn(C(F)F)c4)cc13)C2 (racemic) [Example 46, Rac-(3-(6-(1-(difluoromethyl)-1H-pyrazol-4-yl)pyrrolo[2,1-f][1,2,4]triazin-4-yl)-3,8-diazabicyclo[3.2.1]octan-8-yl)((1R,2R)-2-fluorocyclopropyl)methanone]",1230,9740,6110,668
O=C(C1CC1)N1C2CCC1CN(c1ncnn3cc(-c4cnn(C5CCC5)c4)cc13)C2 [Example 149],942,3130,3010,141
"CC(C(=O)N1C2CCC1CN(c1ncnn3cc(-c4cnn(C(F)F)c4)cc13)C2)C(F)(F)F (stereo not drawn) [Example 31, 1-(3-(6-(1-(difluoromethyl)-1H-pyrazol-4-yl)pyrrolo[2,1-f][1,2,4]triazin-4-yl)-3,8-diazabicyclo[3.2.1]octan-8-yl)-3,3,3-trifluoro-2-methylpropan-1-one trifluoroacetate]",1480,4460,6320,193
"O=C(CC(F)(F)F)N1C2CCC1CN(c1ncnn3cc(-c4cnn(C(F)F)c4)cc13)C2 [Example 43, 1-(3-(6-(1-(difluoromethyl)-1H-pyrazol-4-yl)pyrrolo[2,1-f][1,2,4]triazin-4-yl)-3,8-diazabicyclo[3.2.1]octan-8-yl)-3,3,3-trifluoropropan-1-one]",892,5200,4640,223
"O=C([C@@H]1C[C@H]1F)N1C2CCC1CN(c1ccnn3cc(-c4ccc(C(F)F)nc4)cc13)C2 [Example 116, (3-(6-(6-(difluoromethyl)pyridin-3-yl)pyrrolo[1,2-b]pyridazin-4-yl)-3,8-diazabicyclo[3.2.1]octan-8-yl)((1S,2R)-2-fluorocyclopropyl)methanone]",44,41,847,2.6
"O=C(C1CC1)N1C2CCC1CN(c1ncnc3[nH]c(-c4cnn(C(F)F)c4)cc13)C2 [Example 219, cyclopropyl(3-(6-(1-(difluoromethyl)-1H-pyrazol-4-yl)-7H-pyrrolo[2,3-d]pyrimidin-4-yl)-3,8-diazabicyclo[3.2.1]octan-8-yl)methanone]",232,752,698,23.6
"COc1ccc(-c2cc3c(N4CC5CCC(C4)N5C(=O)[C@@H]4C[C@H]4F)ncnc3[nH]2)cn1 [Example 225, ((1S,2R)-2-fluorocyclopropyl)(3-(6-(6-methoxypyridin-3-yl)-7H-pyrrolo[2,3-d]pyrimidin-4-yl)-3,8-diazabicyclo[3.2.1]octan-8-yl)methanone]",245,357,735,21.3
"N#CC1CC1c1nc2c(N3CC4CCC(C3)N4C(=O)[C@@H]3C[C@H]3F)ccnc2[nH]1 (stereo partly drawn) [Example 215, 2-(7-(8-((1S,2R)-2-fluorocyclopropane-1-carbonyl)-3,8-diazabicyclo[3.2.1]octan-3-yl)-3H-imidazo[4,5-b]pyridin-2-yl)cyclopropane-1-carbonitrile]",2180,5350,10000,484
Cn1cc(-c2cc3c(N4CC5CCC(C4)N5S(=O)(=O)C4CC4)ccnc3[nH]2)cn1 [Example 193],200,36,199,10.1
"Cn1cc(-c2cc3c(N4CC5CCC(C4)N5C(=O)[C@H]4C[C@H]4F)ncnn3c2)cn1 (single isomer, unassigned) [Example 79]",9330,≥ 10000,≥ 10000,626
O=C(C1CC1)N1C2CCC1CN(c1ncnn3cc(-c4cnn(CF)c4)cc13)C2 [Example 155],1810,5180,4000,293
"COc1cncc(-c2cc3c(N4CC5CCC(C4)N5C(=O)[C@@H]4C[C@H]4F)ccnn3c2)n1 [Example 123, ((1S,2R)-2-fluorocyclopropyl)(3-(6-(6-methoxypyrazin-2-yl)pyrrolo[1,2-b]pyridazin-4-yl)-3,8-diazabicyclo[3.2.1]octan-8-yl)methanone]",302,386,5510,23.7
"O=C([C@@H]1C[C@H]1F)N1C2CCC1CN(c1ccnc3[nH]c(C4CCOC4)nc13)C2 (stereo partly drawn) [Example 211, ((1S,2R)-2-fluorocyclopropyl)(3-(2-(tetrahydrofuran-3-yl)-3H-imidazo[4,5-b]pyridin-7-yl)-3,8-diazabicyclo[3.2.1]octan-8-yl)methanone]",5780,10000,10000,676
"O=C(C1CC1)N1C2CCC1CN(c1ccnc3[nH]c(-c4cnn(C(F)F)c4)nc13)C2 [Example 214, cyclopropyl(3-(2-(1-(difluoromethyl)-1H-pyrazol-4-yl)-3H-imidazo[4,5-b]pyridin-7-yl)-3,8-diazabicyclo[3.2.1]octan-8-yl)methanone]",94,62,346,7.6
"COc1cc(-c2cc3c(N4CC5CCC(C4)N5C(=O)[C@@H]4C[C@H]4F)ccnn3c2)c(F)cn1 [Example 27, (3-(6-(5-fluoro-2-methoxypyridin-4-yl)pyrrolo[1,2-b]pyridazin-4-yl)-3,8-diazabicyclo[3.2.1]octan-8-yl)((1S,2R)-2-fluorocyclopropyl)methanone]",277,325,4000,16
O=C(C1CC1)N1C2CCC1CN(c1ncnn3cc(-c4ccnc(Cl)c4)cc13)C2 [Example 180],4750,10000,10000,547
"Cn1ncc(-c2cc3c(N4CC5CCC(C4)N5C(=O)C4(F)CC4)ccnc3[nH]2)c1F [Example 242, (3-(2-(5-fluoro-1-methyl-1H-pyrazol-4-yl)-1H-pyrrolo[2,3-b]pyridin-4-yl)-3,8-diazabicyclo[3.2.1]octan-8-yl)(1-fluorocyclopropyl)methanone]",362,690,296,113
"CN1CCOC(c2nc3c(N4CC5CCC(C4)N5C(=O)[C@@H]4C[C@H]4F)ccnc3[nH]2)C1 (stereo partly drawn) [Example 218, ((1S,2R)-2-fluorocyclopropyl)(3-(2-(4-methylmorpholin-2-yl)-3H-imidazo[4,5-b]pyridin-7-yl)-3,8-diazabicyclo[3.2.1]octan-8-yl)methanone]",2940,10000,10000,783
"O=C([C@@H]1C[C@H]1F)N1C2CCC1CN(c1ncnc3[nH]c(-c4ccc(C(F)(F)F)nc4)cc13)C2 [Example 228, ((1S,2R)-2-fluorocyclopropyl)(3-(6-(6-(trifluoromethyl)pyridin-3-yl)-7H-pyrrolo[2,3-d]pyrimidin-4-yl)-3,8-diazabicyclo[3.2.1]octan-8-yl)methanone]",315,813,7440,41.2
COc1ccc(-c2cc3c(N4CC5CCC(C4)N5C(=O)C4CC4)ncnn3c2)cc1C#N [Example 185],2540,10000,10000,398
O=C(C1CC1)N1C2CCC1CN(c1ncnn3cc(-c4cnn(CC5COC5)c4)cc13)C2 [Example 160],555,931,780,107
